Test results from US20240366523A1, “PATCH AND PRODUCTION METHOD THEREOF” (KANEKA CORPORATION, priority 2021, published 2024).

Test: Kinematic viscosity of non-volatile hydrocarbon oil
Format: physicochemical
Conditions: viscosity measuring temperature 40 ° C.
From the text: The “kinematic viscosity” is a value obtained by converting a viscosity (mPa·s) measured according to “Method II Viscosity measurement by rotational viscometer (2.12 Single cylinder-type rotational viscometer (Brookfield type viscometer)” in “2.53 Viscosity Determination” of General Tests in “Japanese Pharmacopoeia 17th Edition” into a kinematic viscosity.

With `CC(C)CCCC(C)CCCC(C)CCCCC(C)CCCC(C)CCCC(C)C` (stereo not shown) [SQUALANE] the Kinematic viscosity was 20.5 mm^2/s.
